Results published in US12281334B2, “Multi donor stem cell compositions and methods of making same” (Children's Hospital Medical Center, priority 2017, dated 2025).
Entries after “also recorded” stand apart in the source; their conditions may differ.

Tests used:
[1] = system: pooled iPSCs (two fluorescently labeled donors and one puromycin resistant donor); assay: Donor ratio change by drug selection monitored by eDNA (drop out assay); type: cell-based, human; details: puromycin containing media; fluorescence imaging and eDNA donor identification PCR
Text: FIG. 22. Donor ratio change monitored by gDNA in the culture medium. To confirm the eDNA donor identification, Applicant monitored cell ratio change by drug selection. Two types of fluorescently labeled cells and puromycin resistant cells were used as a positive control.
(§1) In one aspect, a “Drop out assay” is disclosed. In this aspect, genomic DNA in environments (environmental DNA, or “eDNA”), a form of cell-free DNA (cfDNA), exists in the environment to determine biodiversity such as sea and soil. Detection of circulating tumor derived cfDNA is an evolving component of cancer precision medicine. […] Remarkably, when applied into pooled stem cell culture, quantitative detection of respective donor correlates with the cell ratio in culture. Therefore, Applicant concluded eDNA-based noninvasive donor identification method is effective decoding strategy for pooled stem cell culture by eDNA in culture supernatant. PCR of eDNA in culture supernatant can be carried out using donor-specific SNP primers. Each SNP primer may be standardized, and the donor ratio of the iPSC pool can be estimated using eDNA contained in the culture supernatant (see FIG. 19). As a result, the cell ratio may be successfully determined by PCR of eDNA in the medium (see FIG. 20). […] In order to confirm the sensitivity of eDNA donor identification, Applicant monitored cell ratio change by drug selection. […]

[2] = system: fat-treated hepatocytes prepared from 11 iPSCs pool; assay: Drop-out assay using induced hepatocytes treated with oleic acid and troglitazone; type: cell-based, human; details: eDNA based drop-out assay; oleic acid treated hepatocyte pool from eleven donors
Description: FIG. 23. Drop-out assay using induced hepatocytes treated with oleic acid and troglitazone. Drug screening assays for fat accumulation and drug treatment were performed using hepatocytes prepared from iPSC pools.
as §1

SMILES	fate of non-resistant iPSCs under drug selection [1]	sensitivity to drug induced hepatotoxicity, high fat accumulation risk donor cells vs healthy donor derived cells [2]
COc1ccc(C[C@H](N)C(=O)N[C@H]2[C@@H](O)[C@H](n3cnc4c(N(C)C)ncnc43)O[C@@H]2CO)cc1 [puromycin]	non-resistant iPSCs were disappeared on the second day of treatment; also recorded: two other donors died due to puromycin toxicity	
Cc1c(C)c2c(c(C)c1O)CCC(C)(COc1ccc(CC3SC(=O)NC3=O)cc1)O2 (centres unmarked) [troglitazone]		significantly more sensitive
